Drawing on PubChem BioAssay AID270 (DTP/NCI, 2004), this text covers T/C for eleven compounds.

Each structure is given as a SMILES string. “And” between values parts separate entries of the source, which are not always exact repeats. Equal entries are not always repeated. Inconclusive results are not listed.

For this assay, the system named is BDF1 mice, s.c. Lewis lung carcinoma, T/C %. Briefly: NCI In Vivo Anticancer Drug Screen. Data for tumor model Lewis Lung Carcinoma (subcutaneous) in B6D2F1 (BDF1) mice. Summed up:
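Transplanted tumors grown in mice; compound vs vehicle dosing; endpoint survival or tumor size; ratio T/C.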

Where [1] appears, read: endpoint: mean tumor weight, dose: 25.0 mg/kg/injection, schedule: Q01DX011 (sc), vehicle: steriod suspending solution, higher = larger tumour.
The mark [2] stands for this setting: endpoint: mean tumor weight, dose: 50.0 mg/kg/injection, schedule: Q01DX011 (sc), vehicle: steriod suspending solution, higher = larger tumour.
The mark [3] stands for this setting: endpoint: mean tumor weight, dose: 100.0 mg/kg/injection, schedule: Q01DX011 (sc), vehicle: steriod suspending solution, higher = larger tumour.
Where [4] appears, read: endpoint: mean tumor weight, dose: 62.5 mg/kg/injection, schedule: Q01DX011 (ip), vehicle: saline, higher = larger tumour.

Consider `O=[N+]([O-])c1ccccc1CSc1ncnc2nc[nH]c12`, for which the T/C runs as follows: (endpoint: mean tumor weight, dose: 15.6 mg/kg/injection, schedule: Q01DX011 (ip), vehicle: other, higher = larger tumour) 38 % of control; (endpoint: mean tumor weight, dose: 31.3 mg/kg/injection, schedule: Q01DX011 (ip), vehicle: other, higher = larger tumour) 86 % of control; (endpoint: mean tumor weight, dose: 62.5 mg/kg/injection, schedule: Q01DX011 (ip), vehicle: other, higher = larger tumour) 82 % of control; (endpoint: mean tumor weight, dose: 125.0 mg/kg/injection, schedule: Q01DX011 (ip), vehicle: other, higher = larger tumour) 41 % of control.

`O=C(/C(=C\c1ccccc1)CN1CCOCC1)c1ccc(Br)cc1`: the T/C reads like this: (endpoint: median survival time, dose: 50.0 mg/kg/injection, schedule: Q01DX009 (ip), vehicle: saline, higher = longer survival) 113 % of control; (endpoint: median survival time, dose: 100.0 mg/kg/injection, schedule: Q01DX009 (ip), vehicle: saline, higher = longer survival) 105 % of control.

For the compound `O=NN(CCCl)C(=O)NC1CSCSC1`, the T/C is 106 % of control (endpoint: median survival time, dose: 1.56 mg/kg/injection, schedule: Q01DX009 (ip), vehicle: saline with Tween-80, higher = longer survival); 104 % of control (endpoint: median survival time, dose: 3.12 mg/kg/injection, schedule: Q01DX009 (ip), vehicle: saline with Tween-80, higher = longer survival); 95 % of control (endpoint: median survival time, dose: 4.7 mg/kg/injection, schedule: Q04DX004 (ip), vehicle: saline with Tween-80, higher = longer survival); 116 % of control (endpoint: median survival time, dose: 5.0 mg/kg/injection, schedule: Q01DX001 (ip), vehicle: saline with Tween-80, higher = longer survival); 96 % of control (endpoint: median survival time, dose: 6.25 mg/kg/injection, schedule: Q01DX009 (ip), vehicle: saline with Tween-80, higher = longer survival); 117 % of control (endpoint: median survival time, dose: 7.0 mg/kg/injection, schedule: Q01DX001 (ip), vehicle: saline with Tween-80, higher = longer survival). Further, the T/C runs as follows: (endpoint: median survival time, dose: 11.0 mg/kg/injection, schedule: Q04DX004 (ip), vehicle: saline with Tween-80, higher = longer survival) 112 % of control; (endpoint: median survival time, dose: 12.5 mg/kg/injection, schedule: Q01DX009 (ip), vehicle: saline with Tween-80, higher = longer survival) 109 % of control; (endpoint: median survival time, dose: 16.5 mg/kg/injection, schedule: Q04DX004 (ip), vehicle: saline with Tween-80, higher = longer survival) 71 % of control; (endpoint: median survival time, dose: 23.0 mg/kg/injection, schedule: Q01DX001 (ip), vehicle: saline with Tween-80, higher = longer survival) 163 % of control; (endpoint: median tumor weight (est.), dose: 7.3 mg/kg/injection, schedule: Q01DX001 (ip), vehicle: saline with Tween-80, higher = larger tumour) 97 % of control; (endpoint: median tumor weight (est.), dose: 15.0 mg/kg/injection, schedule: Q01DX001 (ip), vehicle: saline with Tween-80, higher = larger tumour) 32 % of control and 40 % of control. In addition, the T/C (endpoint: median tumor weight (est.), dose: 22.0 mg/kg/injection, schedule: Q01DX001 (ip), vehicle: saline with Tween-80, higher = larger tumour) was 8 % of control.

Turning to `C[C@]12C=CC(=O)C=C1CC[C@@H]1[C@@H]2[C@@H](O)C[C@@]2(C)[C@H]1CC[C@]2(O)C(=O)CO`, the T/C is, setting by setting: (endpoint: mean tumor weight, dose: 12.5 mg/kg/injection, schedule: Q01DX011 (sc), vehicle: steriod suspending solution, higher = larger tumour) 81 % of control; under setting [1], 72 % of control; under setting [2], 51 % of control; under setting [3], 14 % of control; (endpoint: median survival time, dose: 40.0 mg/kg/injection, schedule: Q02DX009 (ip), vehicle: Klucel (hydroxypropylcellulose) (HPC), higher = longer survival) 99 % of control; (endpoint: median survival time, dose: 80.0 mg/kg/injection, schedule: Q02DX009 (ip), vehicle: Klucel (hydroxypropylcellulose) (HPC), higher = longer survival) 93 % of control. Also, the T/C (endpoint: median survival time, dose: 320.0 mg/kg/injection, schedule: Q02DX009 (ip), vehicle: Klucel (hydroxypropylcellulose) (HPC), higher = longer survival) was 86 % of control.

In the case of `COC(=O)c1ccccc1NC(c1ccccn1)c1ccc2cccnc2c1O` (stereo not given), the T/C was 55 % of control (endpoint: mean tumor weight, dose: 10.0 mg/kg/injection, schedule: Q01DX011 (ip), vehicle: carboxymethylcellulose (CMC), higher = larger tumour); 111 % of control (endpoint: mean tumor weight, dose: 25.0 mg/kg/injection, schedule: Q01DX011 (ip), vehicle: carboxymethylcellulose (CMC), higher = larger tumour); 115 % of control (endpoint: mean tumor weight, dose: 37.0 mg/kg/injection, schedule: Q01DX011 (ip), vehicle: carboxymethylcellulose (CMC), higher = larger tumour); 56 % of control (endpoint: mean tumor weight, dose: 50.0 mg/kg/injection, schedule: Q01DX011 (ip), vehicle: carboxymethylcellulose (CMC), higher = larger tumour); 30 % of control (endpoint: mean tumor weight, dose: 62.0 mg/kg/injection, schedule: Q01DX011 (ip), vehicle: carboxymethylcellulose (CMC), higher = larger tumour); 78 % of control (endpoint: mean tumor weight, dose: 70.0 mg/kg/injection, schedule: Q01DX011 (ip), vehicle: carboxymethylcellulose (CMC), higher = larger tumour). In addition, the T/C by setting is: (endpoint: mean tumor weight, dose: 75.0 mg/kg/injection, schedule: Q01DX011 (ip), vehicle: carboxymethylcellulose (CMC), higher = larger tumour) 86 % of control; (endpoint: mean tumor weight, dose: 125.0 mg/kg/injection, schedule: Q01DX011 (ip), vehicle: carboxymethylcellulose (CMC), higher = larger tumour) 33 % of control; (endpoint: mean tumor weight, dose: 150.0 mg/kg/injection, schedule: Q01DX011 (ip), vehicle: carboxymethylcellulose (CMC), higher = larger tumour) 80 % of control; (endpoint: mean tumor weight, dose: 250.0 mg/kg/injection, schedule: Q01DX011 (ip), vehicle: carboxymethylcellulose (CMC), higher = larger tumour) 76 % of control; (endpoint: mean tumor weight, dose: 300.0 mg/kg/injection, schedule: Q01DX011 (ip), vehicle: carboxymethylcellulose (CMC), higher = larger tumour) 62 % of control; (endpoint: mean tumor weight, dose: 500.0 mg/kg/injection, schedule: Q01DX011 (ip), vehicle: carboxymethylcellulose (CMC), higher = larger tumour) 53 % of control.

As for `COc1cccc(/C=N/C(=S)NC2(C)C3CCC(C3)C2(C)C)c1O` (stereo not given), the T/C was 98 % of control (endpoint: median survival time, dose: 6.25 mg/kg/injection, schedule: Q01DX009 (ip), vehicle: olive oil, sesame oil, peanut oil, higher = longer survival); 94 % of control (endpoint: median survival time, dose: 12.5 mg/kg/injection, schedule: Q01DX009 (ip), vehicle: olive oil, sesame oil, peanut oil, higher = longer survival); 90 % of control (endpoint: median survival time, dose: 100.0 mg/kg/injection, schedule: Q01DX009 (ip), vehicle: olive oil, sesame oil, peanut oil, higher = longer survival).

With `CC(=O)O[C@@H]1[C@@H](O)[C@H]2O[C@@H]3C=C(C)CC[C@]3(CO)[C@]1(C)[C@@]21CO1`, the T/C reads like this: (endpoint: median survival time, dose: 1.25 mg/kg/injection, schedule: Q01DX009 (ip), vehicle: saline with Tween-80, higher = longer survival) 92 % of control; (endpoint: median survival time, dose: 2.5 mg/kg/injection, schedule: Q01DX009 (ip), vehicle: saline with Tween-80, higher = longer survival) 100 % of control; (endpoint: median survival time, dose: 5.0 mg/kg/injection, schedule: Q01DX009 (ip), vehicle: saline with Tween-80, higher = longer survival) 97 % of control.

On to `C[C@]12CCC(=O)C=C1CC[C@@H]1[C@@H]2[C@@H](O)C[C@@]2(C)[C@H]1CC[C@]2(O)C(=O)COC(=O)c1ccc([N+](=O)[O-])cc1Cl`, for which the T/C by setting is: under setting [1], 65 % of control; under setting [2], 71 % of control; under setting [3], 47 % of control; (endpoint: mean tumor weight, dose: 200.0 mg/kg/injection, schedule: Q01DX011 (sc), vehicle: steriod suspending solution, higher = larger tumour) 53 % of control; (endpoint: mean tumor weight, dose: 250.0 mg/kg/injection, schedule: Q01DX011 (sc), vehicle: steriod suspending solution, higher = larger tumour) 18 % of control; (endpoint: mean tumor weight, dose: 500.0 mg/kg/injection, schedule: Q01DX011 (sc), vehicle: steriod suspending solution, higher = larger tumour) 25 % of control. Further, for the setting “endpoint: mean tumor weight, dose: 750.0 mg/kg/injection, schedule: Q01DX011 (sc), vehicle: steriod suspending solution, higher = larger tumour”, the T/C is 13 % of control.

For `O=C(O)c1c2c(nc3ccccc13)Cc1ccccc1-2`, the T/C runs as follows: (endpoint: median survival time, dose: 50.0 mg/kg/injection, schedule: Q01DX009 (ip), vehicle: Klucel (hydroxypropylcellulose) (HPC), higher = longer survival) 99 % of control; (endpoint: median survival time, dose: 100.0 mg/kg/injection, schedule: Q01DX009 (ip), vehicle: Klucel (hydroxypropylcellulose) (HPC), higher = longer survival) 109 % of control; (endpoint: median survival time, dose: 200.0 mg/kg/injection, schedule: Q01DX009 (ip), vehicle: Klucel (hydroxypropylcellulose) (HPC), higher = longer survival) 109 % of control.

As to `Cc1cn(C2OC(CO)C(O)C2O)c(=O)[nH]c1=O` (stereo not given), the T/C reads like this: under setting [4], 94 % of control; (endpoint: mean tumor weight, dose: 500.0 mg/kg/injection, schedule: Q01DX011 (ip), vehicle: saline, higher = larger tumour) 109 % of control.

In the case of `Nc1ccc(OC(=O)Oc2ccc(N)cc2)cc1`, the T/C is, setting by setting: (endpoint: mean tumor weight, dose: 31.3 mg/kg/injection, schedule: Q01DX011 (ip), vehicle: saline, higher = larger tumour) 60 % of control; under setting [4], 79 % of control; (endpoint: mean tumor weight, dose: 125.0 mg/kg/injection, schedule: Q01DX011 (ip), vehicle: saline, higher = larger tumour) 49 % of control; (endpoint: mean tumor weight, dose: 250.0 mg/kg/injection, schedule: Q01DX011 (ip), vehicle: saline, higher = larger tumour) 18 % of control.
